In patent US20250382631A1, “PROTAC-CID SYSTEMS FOR USE IN MULTIPLEX GENE REGULATION” (William Marsh Rice University, priority 2022, published 2025):

Tests used:
[1] = test system: pUAS-2-Fluc expression in HEK293T cells with cognate or non-cognate GAL4/VPR protein pairs; test: Orthogonality analysis, Firefly luciferase (Fluc) luminescence; format: cell-based, human; conditions: seven different protein pairs, 2 days, FIGS. 2A and 14
Procedure: Luciferase luminescence intensity measurement. Before transfection, HEK293T cells were seeded in clear bottom 96 well assay plates (Corning no. 3610) with 100 μL DMEM with 10% FBS and 1× penicillin-streptomycin at 37° C. with 5% CO2. When cells reached 50% confluency, 1.5 μL PEI Max (1 mg/mL, pH=7.1) and 100 μL DMEM were mixed with 60 ng of each plasmid (GAL4 and VPR fused target protein or E3 ubiquitin ligase, pUAS-2-Fluc) for 30 min at room temperature. Mixture was transferred into cells gently. 12 h after transfection, medium was changed, and the inductive small molecules were supplied. 2-days post induction, 120 μL of medium was aspirated from each well containing 200 μL of medium, leaving 80 μL of medium per well, then treated with 40 μL of lysis buffer (500 mM DTT (Sigma no. D0632), 10 mM coenzyme A (RPI no. C95275), 100 mM ATP (Thermo Fisher Scientific no. R1441), 80 mg/mL D-luciferin (GoldBio no. LUCNA-100), Triton lysis buffer (0.1082 M Tris-HCl, 0.0419 M Tris-Base, 75 mM NaCl, 3 mM MgCl2)). Plate was shaken with 20 seconds in “Orbital” mode with frequency of 432 rpm and Amplitude of 1 mm to lysis the cells. Recording the luminescence by plate reader Infinite M200 (TECAN) with 1000 ms integration time using Megellan v1.7 (TECAN). Mean of luciferase luminescence relative light units (RLU) was calculated by the average of three biological replications. Normalized RLU were calculated by dividing RLU of the tested group with mean of RLU of DMSO treated control group for normalization: […]

[2] = test system: EYFP and BFP expression in HEK293T cells; test: Dual PROTAC-based inducible gene cassettes (EYFP and BFP), microscopy; format: cell-based, human; conditions: MZ1 (100 nM) and dTAG-13 (100 nM) PROTAC-CID systems, FIG. 16A
Procedure: Transfection and microscopy. HEK293T cells (American Type Culture Collection, no. CRL-3216) were cultured with high-glucose Dulbecco's modified Eagle's medium (DMEM) (Thermo Fisher Scientific no. 10569044) with 10% fetal bovine serum (FBS) (Thermo Fisher Scientific no. 10437028) and 1×penicillin-streptomycin (Thermo Fisher Scientific no. 15140122) at 37° C. with 5% CO2. Except for the data in FIGS. 3C, 3E, and 3H, cells were plated into 96 well plate (Corning no. 3598) and transfected by Polyethyleneimine Max (PEI Max) (Polysciences no. 24765-1). 1.5 μL PEI Max (1 mg/mL, pH=7.1) and 100 μl DMEM were mixed with plasmids to be slowly dropped into the cell medium after 30 mins of incubation. Medium was changed 12 hours post-transfection. The inductive small molecules, including Rapamycin (STEM CELL technologies no. 73362), dTAG-13 (TOCRIS no. 6605/5), dTAG^V-1 (TOCRIS no. 6744-5), dBRD9 (TOCRIS no. 6606/5), dTRIM24 (TOCRIS no. 6607/5), MZ1 (TOCRIS no. 6154/5), AT1 (TOCRIS no. 6356/5), TL13-12 (TOCRIS no. 6744/5), TL13-112 (TOCRIS no. 6745/5), dTAG-7 (TOCRIS no. 69125), ZXH3-26 (TOCRIS no. 6713/5) and ABA (GoldBio no. A-050-100), dissolved in Dimethyl sulfoxide (DMSO) (Sigma, no. D8418) were added. For the microscopy observation, the images were taken by Microscopy EVOS (Life Technologies) and processed by ImageJ (Schneider et al., 2012). If not otherwise noted, 60 ng of each plasmid were used for each sample.
The inventors next tested the feasibility of dual PROTAC-based inducible gene cassettes (FIG. 15). In the first cassette, GAL4 was fused with FKBP12^F36V, and VHL was ligated with VPR to drive EYFP expression in response to dTAG^V-1. In the second cassette, TetR was fused with BRD9BD, and CRBN was connected with VPR to drive blue fluorescence protein (BFP) expression in the presence of dBRD9. […] As biological computation relies on the protein or DNA to execute Boolean logic gate operation in living organisms for cell discrimination and disease diagnosis (3, 11, 42), the inventors next explored the possibility of PROTAC-CID enabled logic gate biological computation. By placing EYFP under control of the TRE (Tetracycline response element) and pUAS-1 promoter, the inventors observed strong EYFP expression by using one or two PROTACs, achieving clear logic OR gate responses (FIGS. 2C and 16B). To develop a more sophisticated logic AND gate, the inventors took advantage of two orthogonal site-specific DNA recombinases (Cre and Dre) for biological computation (43). […] In this gene circuit, only in the presence of both dTAG-13 and dBRD9 inducers, Dre and Cre can be expressed to remove their respective “STOP” signals, resulting in the eventual GFP expression as a clear logic AND readout (FIGS. 2D and 16C).

Row | SMILES | orthogonality: Fluc activation with cognate vs non-cognate protein partners [1] | gene activation from dual inducible cassettes [2]
1 | Cc1ncsc1-c1ccc(CNC(=O)[C@@H]2C[C@@H](O)CN2C(=O)[C@@H](NC(=O)COCCOCCOCCNC(=O)C[C@@H]2N=C(c3ccc(Cl)cc3)c3c(sc(C)c3C)-n3c(C)nnc32)C(C)(C)C)cc1 [MZ1] | interact with the same protein pairs | single gene activation with one PROTAC small molecule and dual-gene activation using both PROTACs
2 | CC[C@H](C(=O)N1CCCC[C@H]1C(=O)O[C@H](CCc1ccc(OC)c(OC)c1)c1ccccc1OCC(=O)NCCCCCCOc1cccc2c1C(=O)N(C1CCC(=O)NC1=O)C2=O)c1cc(OC)c(OC)c(OC)c1 (stereo partly shown) [dTAG-13] | only activated Fluc expression in the cells transfected with plasmids containing GAL4-FKBP12^F36V (SEQ ID NO: 1) and CRBN-VPR (SEQ ID NO: 2) coding regions | single gene activation with one PROTAC small molecule and dual-gene activation using both PROTACs
